Publication PMC11931052, “Efficacy of dispirotripiperazine PDSTP in a golden Syrian hamster model of SARS-CoV-2 infection” (Frontiers in Microbiology, 2025)

Columns and labels:
HCoV-OC43 = assay: MTT test, HCoV-OC43 in Vero-76 cells; assay type: cell-based; details: Betacoronavirus 1, OC43, Vero 76, read-out: IC50 (HCoV-OC43)
[1] = Cytotoxicity (MTT test) in Vero E6 cell line; assay type: cell-based, African Green Monkey (Cercopithecus aethiops); details: African green monkey, mean ± SD, three independent experiments
Protocol: (§1) The microtetrazolium test (MTT test) was used to study the cytotoxicity of the compounds. Vero cells were seeded in 96-well plates at an initial density of 3×10^5 cells/mL, in Gibco Dulbecco’s Modified Eagle Medium supplemented with L-glutamine and 25 mg/L kanamycin, and 10 % fetal bovine serum (FBS) (DMEM, Thermo Fisher Scientific, Waltham, MA USA). Cell cultures were then incubated at 37 °C in a 5 % CO2 atmosphere, in the absence or presence of serial dilutions of test compounds. The test medium used for the cytotoxic assay as well as for the antiviral assay contained 1 % of the appropriate serum. Cell viability was determined after 72 h at 37 °C by the MTT method as previously reported. The cell viability was expressed as a percentage of the control. The 50% cytotoxic concentration (CC50) of each compound was defined as the concentration of the compound that reduced the absorbance (OD570) of the treated cells to 50% when compared with that of untreated cells. CC50 mean values were calculated from at least three independent experiments.

[2] = Cytotoxicity (MTT test) in Vero-76 cells; assay type: cell-based, African Green Monkey (Cercopithecus aethiops); details: African green monkey
Protocol: as §1

[3] = tested on: SARS-CoV-2 clinical isolate 35245; assay: Plaque reduction assay, SARS-CoV-2 35245; assay type: cell-based; details: Severe acute respiratory syndrome coronavirus 2, read-out: Antiviral activity IC50 against coronaviruses, SARS-CoV-2 clinical isolate 35245, PR
HCoV-229E = assay: Plaque reduction assay, HCoV-229E in Vero E6 cells; assay type: cell-based; details: Human coronavirus 229E, Vero C1008, Vero E6, mean ± SD, read-out: Antiviral activity IC50 against coronaviruses, HCoV-229E, PR
Protocol: (§2) Vero E6 cells were incubated in the presence of PDSTP and reference compounds (100.0, 20.0, 4.0, and 0.8 μM concentrations) for 1 h at 37°C in a 5% CO2 and then infected for 1 h with 250 μL of the corresponding virus (SARS-CoV-2 PV10734 or HCoV-229E) dilutions to obtain 50–100 PFU/well. The plates were then incubated for 1 h at 37°C in a 5% CO2 atmosphere. Following the removal of the unabsorbed virus, 400 μL of the medium (D-MEM with L-glutamine, 4,500 mg/L D-glucose, and 1% inactivated FBS) containing 0.75% methyl-cellulose (M0512, viscosity 4,000 cP, Sigma-Aldrich, United States) and the serial dilutions of the compounds were added and incubated for 4 (SARS-CoV-2) or 2 (HCoV-229E) days at 37°C in a 5% CO2 atmosphere. Subsequently, the cells were fixed and stained with a 0.2% crystal violet solution (V5265, Sigma-Aldrich, United States) and then the number of plaques was calculated. The degree of cell growth/viability and viral multiplication at each drug concentration tested was expressed as a percentage of the untreated control. Concentrations resulting in 50% inhibition (CC50 or EC50) were determined using linear regression analysis.

[4] = tested on: SARS-CoV-2 clinical isolate VR PV10734; assay: Plaque reduction assay, SARS-CoV-2 VR PV10734 in Vero E6 cells; assay type: cell-based; details: Severe acute respiratory syndrome coronavirus 2, Vero C1008, mean ± SD, read-out: Antiviral activity IC50 against coronaviruses, SARS-CoV-2 clinical isolate VR PV10734, PR
Protocol: as §2

[5] = tested on: SARS-CoV-2 clinical isolate 35245; assay: Microtetrazolium (MTT) test, SARS-CoV-2 35245; assay type: cell-based; details: Severe acute respiratory syndrome coronavirus 2, read-out: Antiviral activity IC50 against coronaviruses, SARS-CoV-2 clinical isolate 35245, MTT
Protocol: The compound’s activity against OC43 and SARS-CoV-235245 was based on the inhibition of virus-induced cytopathogenicity in acutely infected Vero-76 cells (MOI 0.01). Briefly, Vero-76 cells were seeded in 96-well plates at a density of 3 × 10^4 cells/well and incubated in a growth medium in a 5% CO2 at 37°C overnight. Cell monolayers were then infected with 50 μL of the appropriate viral dilution in maintenance medium [D-MEM and MEM-Earl (Gibco, Thermo Fisher Scientific, MA United States) with L-glutamine (Gibco), 1 mM sodium pyruvate (Gibco), and 0.025 g/L kanamycin (Gibco), supplemented with 0.5% inactivated FBS (Harlan Sera-Lab, Loughborough, United Kingdom), respectively] to give an MOI of 0.01, without or with serial dilutions of test samples. After 6 (HCoV-OC43) and 4/5 (SARS-CoV-2) days of incubation at 37°C, the extent of cell viability was quantified using a tetrazolium-based colorimetric method, in which the reduction of 3-(4,5-dimethylthiazol-2-yl)-2,5-diphenyl-tetrazolium bromide (MTT) by mitochondrial dehydrogenases to a soluble colored formazan was measured using a spectrophotometer (Infinity 200, Tecan Austria GmbH, Austria) at 570 nm, as previously reported ([Sanna et al., 2020]).

SARS-COV-2 PV10734 = assay: Time-of-addition and cell pre-treatment assay in Vero cells; assay type: cell-based

Row | Compound | IC50 (HCoV-OC43) | CC50 at 72 h ([1]; Vero E6 cells) | CC50 at 72 h ([2]; Vero-76 cells) | IC50 [3] | IC50 (HCoV-229E) | IC50 [4] | IC50 [5] | Antiviral activity after the SARS-CoV-2 entry process (SARS-COV-2 PV10734) | Antiviral activity, pre-treatment and early stages of infection (SARS-COV-2 PV10734) | CC50 at 72 h [1] | CC50 at 72 h [2] | Inhibitory effect at the later stages of infection (SARS-COV-2 PV10734; addition at 4 and 6 hpi)
1 | CCN(CCO)CCCC(C)Nc1ccnc2cc(Cl)ccc12 (centres unmarked) [HDQ, Hydroxychloroquine, reference compound] | 9.8 ± 1.7 µM | 40 ± 5 µM | 40 ± 5 µM | 2300 ± 700 nM | 1.6 ± 0.5 µM | 2400 ± 700 nM | 11 ± 2.9 µM |  |  |  |  | 
2 | CCC(CC)COC(=O)[C@H](C)N[P@](=O)(OC[C@H]1O[C@@](C#N)(c2ccc3c(N)ncnn23)[C@H](O)[C@@H]1O)Oc1ccccc1 [RMD, Remdesivir] |  |  |  |  | 6 ± 2 µM | 1600 ± 300 nM |  | exerted its antiviral activity | did not affect the early events of the viral life cycle | > 100 µM | > 100 µM | 
3 | heparin |  |  |  |  |  |  |  |  |  |  |  | barely noticeable
